# Target: BTK wildtype protein (Homo sapiens (Human), UniProt Q06187)
# Experiment: BTK wildtype HTRF displacement assay
# Assay type: binding
# Settings: 1-hour incubation; read-out: BTK (wt) IC50
# Procedure: (§1) The ability of a compound to bind BTK wildtype or BTK C481S proteins was measured using an HTRF displacement assay. The assay measures the ability of a compound to displace a tracer ligand bound to the active site of BTK wildtype or BTK C481 S proteins.
# (§2) Test compounds were prepared as 10 mM stock solutions in DMSO (Fisher cat #BP231-100). Compounds to be assayed were dispensed using an Echo 650 acoustic dispenser (Beckman Coulter) on a 384 well plate in 6 doses applying four-fold dilutions from the highest concentration of 5 μM. N-terminal GST-tagged recombinant full-length BTK wildtype protein and BTK C481 S protein 2-659 were purchased from Carna Biosciences, Inc (Kobe, Japan). BTK wildtype or BTK C481S protein was separately incubated with compound in assay buffer containing kinase tracer 239 (Thermo Fisher) and Mab anti GST-Th (PerkinElmer). After a 1-hour incubation at room temperature, the HTRF signal was measured using SPARK plate reader (Tecan) using the TR fluorescence mode. The HTRF ratio is calculated for DMSO, no protein control and compound samples using the following equation: HTRF ratio=Emmision665/Emmision620×10^4. The signal for the no protein control samples was used to subtract background noise from the DMSO and compound samples. Background subtracted HTRF ratios are used to calculate the percent inhibition, where DMSO controls are set to 0 percent inhibition. The percent inhibition is plotted as a function of compound concentration and IC50 values were calculated from a four-parameter logistic fit in Prism v9.4 (GraphPad), where the bottom and top are constrained to 0 and 100, respectively.
# Sequence of BTK wildtype protein (Q06187 2-659): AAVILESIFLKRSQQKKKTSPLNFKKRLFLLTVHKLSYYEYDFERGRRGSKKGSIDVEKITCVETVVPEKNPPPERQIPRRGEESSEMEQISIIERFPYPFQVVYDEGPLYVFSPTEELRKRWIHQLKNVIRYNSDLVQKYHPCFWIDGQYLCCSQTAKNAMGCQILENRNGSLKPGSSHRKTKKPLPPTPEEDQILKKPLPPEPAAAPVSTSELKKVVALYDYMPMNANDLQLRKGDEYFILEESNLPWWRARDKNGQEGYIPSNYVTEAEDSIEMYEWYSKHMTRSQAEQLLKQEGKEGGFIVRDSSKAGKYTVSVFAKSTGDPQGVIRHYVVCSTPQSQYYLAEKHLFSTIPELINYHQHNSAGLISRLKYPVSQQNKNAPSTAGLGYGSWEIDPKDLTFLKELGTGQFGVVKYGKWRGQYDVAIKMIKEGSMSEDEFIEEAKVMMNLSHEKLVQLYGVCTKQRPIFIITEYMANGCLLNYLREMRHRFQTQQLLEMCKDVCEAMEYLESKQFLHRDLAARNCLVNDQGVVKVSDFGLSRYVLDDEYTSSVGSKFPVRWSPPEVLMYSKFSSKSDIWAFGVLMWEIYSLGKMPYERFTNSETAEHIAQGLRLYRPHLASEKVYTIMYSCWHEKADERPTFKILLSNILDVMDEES
row,SMILES,IC50 [nM]
1,"CN(C(=O)n1cncn1)C1CC(C2CCNc3c(C(N)=O)c(-c4ccc(Oc5ccccc5)cc4)nn32)C1 (stereo not shown) [Compound 115, 7-(3-(N-methyl-1H-1,2,4-triazole-1-carboxamido)cyclobutyl)-2-(4-phenoxyphenyl)-4,5,6,7-tetrahydropyrazolo[1,5-a]pyrimidine-3-carboxamide]",≤ 1000
2,"COc1ccc(F)cc1C(=O)NCc1ccc(-c2nn(C(Cc3ccccc3)CN(C)C(=O)n3cncn3)c3ncnc(N)c23)cc1 (stereo not shown) [Compound 237, N-(2-(4-amino-3-(4-((5-fluoro-2-methoxybenzamido)methyl)phenyl)-1H-pyrazolo[3,4-d]pyrimidin-1-yl)-3-phenylpropyl)-N-methyl-1H-1,2,4-triazole-1-carboxamide]",> 1000
3,"COc1ccc(F)cc1C(=O)NCc1ccc(-c2nn(CC3CCCCC3N(C)C(=O)n3cncn3)c3ncnc(N)c23)cc1 (stereo not shown) [Compound 126, N-(2-((4-amino-3-(4-((5-fluoro-2-methoxybenzamido)methyl)phenyl)-1H-pyrazolo[3,4-d]pyrimidin-1-yl)methyl)cyclohexyl)-N-methyl-1H-1,2,4-triazole-1-carboxamide]",≤ 1000
4,"CN(C(=O)n1cncn1)C1CCC2C(CNc3c(C(N)=O)c(-c4ccc(Oc5ccccc5)cc4)nn32)C1 (stereo not shown) [Compound 272, 7-(N-methyl-1H-1,2,4-triazole-1-carboxamido)-2-(4-phenoxyphenyl)-4,5,5a,6,7,8,9,9a-octahydropyrazolo [1,5-a]quinazoline-3-carboxamide]",≤ 1000
5,"CN(CCC1CCNc2c(-c3ccc(Oc4ccccc4)cc3)c(C(N)=O)nn21)C(=O)n1cncn1 (stereo not shown) [Compound 167, 7-(2-(N-methyl-1H-1,2,4-triazole-1-carboxamido)ethyl)-3-(4-phenoxy-phenyl)-4,5,6,7-tetrahydro-pyrazolo[1,5-a]pyrimidine-2-carboxamide]",> 1000
6,"COc1ccc(F)cc1C(=O)NCc1ccc(-c2nn(C3CCC(N(C)C(=O)n4cncn4)C3)c(N)c2C(N)=O)cc1 (stereo not shown) [Compound 201, N-(3-(5-amino-4-carbamoyl-3-(4-((5-fluoro-2-methoxybenzamido)methyl)phenyl)-1H-pyrazol-1-yl)cyclopentyl)-N-methyl-1H-1,2,4-triazole-1-carboxamide]",≤ 1000
7,"COc1ccc(F)cc1C(=O)NCc1ccc(-c2nn(C3CCCC4(CCN4C(=O)n4cncn4)C3)c3ncnc(N)c23)cc1 (stereo not shown) [Compound 236, N-(4-(1-(1-(1H-1,2,4-triazole-1-carbonyl)-1-azaspiro[3.5]nonan-6-yl)-4-amino-1H-pyrazolo[3,4-d]pyrimidin-3-yl)benzyl)-5-fluoro-2-methoxybenzamide]",≤ 1000
8,"CN(C(=O)n1cncn1)C1CCC(n2nc(-c3ccc(Oc4ccccc4)cc3)c3c(N)ncnc32)C1 (stereo not shown) [Compound 216, N-(3-(4-amino-3-(4-phenoxyphenyl)-1H-pyrazolo[3,4-d]pyrimidin-1-yl)cyclopentyl)-N-methyl-1H-1,2,4-triazole-1-carboxamide]",≤ 1000
9,"CN(C(=O)n1cncn1)C1CCCC(n2nc(-c3ccc(Oc4ccccc4)cc3)c3c(N)ncnc32)C1 (stereo not shown) [Compound 233, N-(3-(4-amino-3-(4-phenoxyphenyl)-1H-pyrazolo[3,4-d]pyrimidin-1-yl)cyclohexyl)-N-methyl-1H-1,2,4-triazole-1-carboxamide]",≤ 1000

# The next lines start with the values.
row,IC50 [nM],SMILES
1,> 1000,"NC(=O)c1c(-c2ccc(Oc3ccccc3)cc2)nn2c1NCCC2C1CCCN(C(=O)n2cncn2)C1 (stereo not shown) [Compound 283, 7-(1-(1H-1,2,4-triazole-1-carbonyl)piperidin-3-yl)-2-(4-phenoxyphenyl)-4,5,6,7-tetrahydropyrazolo[1,5-a] pyrimidine-3-carboxamide]"
2,≤ 1000,"CN(C(=O)n1cncn1)C1CCC(n2nc(-c3ccc(Oc4ccccc4)cc3)c(C(N)=O)c2N)C1 (stereo not shown) [Compound 295, N-(3-(5-amino-4-carbamoyl-3-(4-phenoxyphenyl)-1H-pyrazol-1-yl)cyclopentyl)-N-methyl-1H-1,2,4-triazole-1-carboxamide]"
3,≤ 1000,"CN(C(=O)n1cncn1)C1CCCCC(n2nc(-c3ccc(Oc4ccccc4)cc3)c3c(N)ncnc32)C1 (stereo not shown) [Compound 314, N-(3-(4-amino-3-(4-phenoxyphenyl)-1H-pyrazolo[3,4-d]pyrimidin-1-yl)cycloheptyl)-N-methyl-1H-1,2,4-triazole-1-carboxamide]"
4,≤ 1000,"COc1ccc(F)cc1C(=O)NCc1ccc(-c2nn(C3CCCC(N(C)C(=O)n4cncn4)C3)c3ncnc(N)c23)cc1 (stereo not shown) [Compound 290, N-(3-(4-amino-3-(4-((5-fluoro-2-methoxybenzamido)methyl)phenyl)-1H-pyrazolo[3,4-d]pyrimidin-1-yl)cyclohexyl)-N-methyl-1H-1,2,4-triazole-1-carboxamide]"
5,≤ 1000,"COc1ccc(F)cc1C(=O)NCc1ccc(-c2nn(C3CCCCC(N(C)C(=O)n4cncn4)C3)c3ncnc(N)c23)cc1 (stereo not shown) [Compound 278, N-(3-(4-amino-3-(4-((5-fluoro-2-methoxybenzamido)methyl)phenyl)-1H-pyrazolo[3,4-d]pyrimidin-1-yl)cycloheptyl)-N-methyl-1H-1,2,4-triazole-1-carboxamide]"

# Target: BTK C481S protein (Homo sapiens (Human), UniProt Q06187, C481S)
# Experiment: BTK C481S HTRF displacement assay
# Assay type: binding
# Settings: 1-hour incubation
# Procedure: as §1, §2
# The same assay was used to measure the activity of selected compounds of the formula TBM-L-hydrogen. Using the IC50 value observed for a given reversible test compound, the KI of the test compound can be assessed using the formula KI=IC50/(1+([Tracer]/Kd)), wherein the tracer concentration in the assay [Tracer] is 50 nM and the tracer Kd for BTK C481S is 54 nM.
# Sequence of BTK C481S protein (Q06187 2-659 C481S): as the sequence (Q06187 2-659) above, with C480S counted along it
row,IC50 [nM],SMILES
1,≤ 1000,"CN(C(=O)n1cncn1)C1CC(C2CCNc3c(C(N)=O)c(-c4ccc(Oc5ccccc5)cc4)nn32)C1 (stereo not shown) [Compound 115, 7-(3-(N-methyl-1H-1,2,4-triazole-1-carboxamido)cyclobutyl)-2-(4-phenoxyphenyl)-4,5,6,7-tetrahydropyrazolo[1,5-a]pyrimidine-3-carboxamide]"
2,> 1000,"COc1ccc(F)cc1C(=O)NCc1ccc(-c2nn(C(Cc3ccccc3)CN(C)C(=O)n3cncn3)c3ncnc(N)c23)cc1 (stereo not shown) [Compound 237, N-(2-(4-amino-3-(4-((5-fluoro-2-methoxybenzamido)methyl)phenyl)-1H-pyrazolo[3,4-d]pyrimidin-1-yl)-3-phenylpropyl)-N-methyl-1H-1,2,4-triazole-1-carboxamide]"
3,≤ 1000,"COc1ccc(F)cc1C(=O)NCc1ccc(-c2nn(CC3CCCCC3N(C)C(=O)n3cncn3)c3ncnc(N)c23)cc1 (stereo not shown) [Compound 126, N-(2-((4-amino-3-(4-((5-fluoro-2-methoxybenzamido)methyl)phenyl)-1H-pyrazolo[3,4-d]pyrimidin-1-yl)methyl)cyclohexyl)-N-methyl-1H-1,2,4-triazole-1-carboxamide]"
4,≤ 1000,"CN(C(=O)n1cncn1)C1CCC2C(CNc3c(C(N)=O)c(-c4ccc(Oc5ccccc5)cc4)nn32)C1 (stereo not shown) [Compound 272, 7-(N-methyl-1H-1,2,4-triazole-1-carboxamido)-2-(4-phenoxyphenyl)-4,5,5a,6,7,8,9,9a-octahydropyrazolo [1,5-a]quinazoline-3-carboxamide]"
5,≤ 1000,"COc1ccc(F)cc1C(=O)NCc1ccc(-c2nn(C3CCCC(N(C)C(=O)n4cncn4)C3)c3ncnc(N)c23)cc1 (stereo not shown) [Compound 177, N-(3-(4-amino-3-(4-((5-fluoro-2-methoxybenzamido)methyl)phenyl)-1H-pyrazolo[3,4-d]pyrimidin-1-yl)cyclohexyl)-N-methyl-1H-1,2,4-triazole-1-carboxamide]"
6,> 1000,"CN(CCC1CCNc2c(-c3ccc(Oc4ccccc4)cc3)c(C(N)=O)nn21)C(=O)n1cncn1 (stereo not shown) [Compound 167, 7-(2-(N-methyl-1H-1,2,4-triazole-1-carboxamido)ethyl)-3-(4-phenoxy-phenyl)-4,5,6,7-tetrahydro-pyrazolo[1,5-a]pyrimidine-2-carboxamide]"
7,≤ 1000,"CN(C(=O)n1cncn1)C1CCCCC(n2nc(-c3ccc(Oc4ccccc4)cc3)c3c(N)ncnc32)C1 (stereo not shown) [Compound 118, N-(3-(4-amino-3-(4-phenoxyphenyl)-1H-pyrazolo[3,4-d]pyrimidin-1-yl)cycloheptyl)-N-methyl-1H-1,2,4-triazole-1-carboxamide]"
8,≤ 1000,"CN(C(=O)n1cncn1)C1CCCC(n2nc(-c3ccc(Oc4ccccc4)cc3)c3c(N)ncnc32)C1 (stereo not shown) [Compound 160, N-(3-(4-amino-3-(4-phenoxyphenyl)-1H-pyrazolo[3,4-d]pyrimidin-1-yl)cyclohexyl)-N-methyl-1H-1,2,4-triazole-1-carboxamide]"
9,> 1000,"NC(=O)c1c(-c2ccc(Oc3ccccc3)cc2)nn2c1NCCC2C1CCN1C(=O)n1cncn1 (stereo not shown) [Compound 180, 7-(1-(1H-1,2,4-triazole-1-carbonyl)azetidin-2-yl)-2-(4-phenoxy-phenyl)-4,5,6,7-tetrahydropyrazolo [1,5-a]pyrimidine-3-carboxamide]"
10,≤ 1000,"COc1ccc(F)cc1C(=O)NCc1ccc(-c2nn(C(C)C(C)CN(C)C(=O)n3cncn3)c3ncnc(N)c23)cc1 (stereo not shown) [Compound 189, N-(3-(4-amino-3-(4-((5-fluoro-2-methoxybenzamido)methyl)phenyl)-1H-pyrazolo[3,4-d]pyrimidin-1-yl)-2-methylbutyl)-N-methyl-1H-1,2,4-triazole-1-carboxamide]"
11,≤ 1000,"CN(C(=O)n1cncn1)C1CCC(n2nc(-c3ccc(Oc4ccccc4)cc3)c(C(N)=O)c2N)C1 (stereo not shown) [Compound 302, N-(3-(5-amino-4-carbamoyl-3-(4-phenoxyphenyl)-1H-pyrazol-1-yl)cyclopentyl)-N-methyl-1H-1,2,4-triazole-1-carboxamide]"
12,≤ 1000,"COc1ccc(F)cc1C(=O)NCc1ccc(-c2nn(C3CCCCC(N(C)C(=O)n4cncn4)C3)c3ncnc(N)c23)cc1 (stereo not shown) [Compound 147, N-(3-(4-amino-3-(4-((5-fluoro-2-methoxybenzamido)methyl)phenyl)-1H-pyrazolo[3,4-d]pyrimidin-1-yl)cycloheptyl)-N-methyl-1H-1,2,4-triazole-1-carboxamide]"
13,≤ 1000,"COc1ccc(F)cc1C(=O)NCc1ccc(-c2nn(C(C)CC3CCCN3C(=O)n3cncn3)c3ncnc(N)c23)cc1 (stereo not shown) [Compound 166, N-(4-(1-(1-(1-(1H-1,2,4-triazole-1-carbonyl)pyrrolidin-2-yl)propan-2-yl)-4-amino-1H-pyrazolo[3,4-d]pyrimidin-3-yl)benzyl)-5-fluoro-2-methoxybenzamide]"
14,≤ 1000,"CN(C(=O)n1cncn1)C1CCC(n2nc(-c3ccc(Oc4ccccc4)cc3)c3c(N)ncnc32)C1 (stereo not shown) [Compound 116, N-(3-(4-amino-3-(4-phenoxyphenyl)-1H-pyrazolo[3,4-d]pyrimidin-1-yl)cyclopentyl)-N-methyl-1H-1,2,4-triazole-1-carboxamide]"

# Same assay, conditions: TBM-L-hydrogen compounds; KI=IC50/(1+([Tracer]/Kd)), [Tracer] 50 nM, Kd 54 nM
row,Ki [nM],SMILES
1,< 660,COc1ccc(F)cc1C(=O)NCc1ccc(-c2nn(CCNC3CC3)c3ncnc(N)c23)cc1 [reference compound]
2,< 600,COc1ccc(C)cc1C(=O)NCc1ccc(-c2nn(CC3CCCCN3)c3ncnc(N)c23)cc1 (stereo not shown) [reference compound]
3,< 1000,CCNCC1CCNc2c(C(N)=O)c(-c3ccc(Oc4ccccc4)cc3)nn21 (stereo not shown) [reference compound]
